# According to patent publication US20190191690A1, “AGENTS AND DEVICE FOR COMBATING PESTS, IN […] AND MICE, AND METHOD FOR USING THE AGENTS” (priority 2016, published 2019):
# Assays:
# mice [1] = experiment: lethal dose in mice; assay type: in vivo
# Experimental: The grayanotoxins have been described in exhaustive terms in literature and the chemical formulae are known. It has become evident that the effects of the substance occur even for low concentrations of the active agent. The lethal dose for grayanotoxin 1 in mice is approx. 5.1 mg per kg live weight and for grayanotoxin 3 approx. 4.9 mg per kg live weight. The substance as an active agent carrier may contain natural and/or synthetic carrier substances or substance mixtures. Natural carrier substances may be preferably selected from the group of natural oils, waxes and honey and their mixtures, emulsions, solutions or dispersions.
# mice [2] = experiment: experiments on development of resistance in mice; assay type: in vivo
Compound,lethal dose (mice [1]),development of resistance (mice [2])
CC(=O)O[C@@H]1[C@H]2CC[C@H]3[C@@](C)(O)[C@@H]4C[C@H](O)C(C)(C)[C@@]4(O)[C@H](O)C[C@@]13C[C@@]2(C)O [grayanotoxin 1],approx. 5.1 mg per kg live weight,–
grayanotoxin,–,rare for mice to develop a resistance
grayanotoxin 3,approx. 4.9 mg per kg live weight,–
